Source: ChEMBL document CHEMBL4330101, “Identification of BR101549 as a lead candidate of non-TZD PPARγ agonist for the treatment of type 2 diabetes: Proof-of-concept evaluation and SAR” (Bioorg Med Chem Lett, 2019)

Test system: not listed separately
Experiment: Stability in mouse liver microsomes assessed as parent compound remaining after 30 mins
Format: ADME, Microsome
Conditions: read-out: Stability

Point of comparison: `CCCCc1nc(C(C)C)c(CC(=O)OC2CCCCC2)c(=O)n1Cc1ccc(-c2ccccc2-c2noc(=O)[nH]2)cc1`, remaining at 0.5 h 14.6%. Against it:
- CCCCCOC(=O)Cc1c(C(C)C)nc(CCCC)n(Cc2ccc(-c3ccccc3-c3noc(=O)[nH]3)cc2)c1=O — higher, 19.7%
- CCCCc1nc(C)c(CC(=O)OC(C)C)c(=O)n1Cc1ccc(-c2ccccc2-c2noc(=O)[nH]2)cc1 — lower, 4%
- CCCCc1nc(C(C)C)c(CC(=O)OCCC)c(=O)n1Cc1ccc(-c2ccccc2-c2noc(=O)[nH]2)cc1 — lower, 12.6%
- CCCCc1nc(C(C)C)c(C(C)C(=O)OCC)c(=O)n1Cc1ccc(-c2ccccc2-c2noc(=O)[nH]2)cc1 (stereo unspecified) — higher, 28%
- CCCCc1nc(C(C)C)c(CC(=O)O)c(=O)n1Cc1ccc(-c2ccccc2-c2noc(=O)[nH]2)cc1 — higher, 100%
- CCCCc1nc(C(C)(C)C)c(CC(=O)OCC)c(=O)n1Cc1ccc(-c2ccccc2-c2noc(=O)[nH]2)cc1 — lower, 14%

Test system: not listed separately
Experiment: Stability in human liver microsomes assessed as parent compound remaining after 30 mins
Format: ADME, Microsome
Conditions: read-out: Stability

Point of comparison: `CCCCc1nc(C(C)C)c(CC(=O)OC2CCCCC2)c(=O)n1Cc1ccc(-c2ccccc2-c2noc(=O)[nH]2)cc1`, remaining at 0.5 h 13.3%. Against it:
- CCCCCOC(=O)Cc1c(C(C)C)nc(CCCC)n(Cc2ccc(-c3ccccc3-c3noc(=O)[nH]3)cc2)c1=O — lower, 10.6%
- CCCCc1nc(C)c(CC(=O)OC(C)C)c(=O)n1Cc1ccc(-c2ccccc2-c2noc(=O)[nH]2)cc1 — higher, 17.5%
- CCCCc1nc(C(C)C)c(CC(=O)OCCC)c(=O)n1Cc1ccc(-c2ccccc2-c2noc(=O)[nH]2)cc1 — lower, 7.2%
- CCCCc1nc(C(C)C)c(C(C)C(=O)OCC)c(=O)n1Cc1ccc(-c2ccccc2-c2noc(=O)[nH]2)cc1 (stereo unspecified) — lower, 11%
- CCCCc1nc(C(C)C)c(CC(=O)O)c(=O)n1Cc1ccc(-c2ccccc2-c2noc(=O)[nH]2)cc1 — higher, 86.8%
- CCCCc1nc(C(C)(C)C)c(CC(=O)OCC)c(=O)n1Cc1ccc(-c2ccccc2-c2noc(=O)[nH]2)cc1 — lower, 8.2%

Test system: not listed separately
Experiment: Drug metabolism in rat liver S9 fraction assessed as acylglucuronide formation
Format: ADME, subcellular
Conditions: not given

For `CCCCc1nc(C(C)C)c(CC(=O)O)c(=O)n1Cc1ccc(-c2ccccc2-c2noc(=O)[nH]2)cc1`, the Drug metabolism was “Metabolite_Detected”.

Molecular target: T1, Peroxisome proliferator-activated receptor gamma (Homo sapiens, UniProt P37231)
T1 sequence (P37231 whole entry): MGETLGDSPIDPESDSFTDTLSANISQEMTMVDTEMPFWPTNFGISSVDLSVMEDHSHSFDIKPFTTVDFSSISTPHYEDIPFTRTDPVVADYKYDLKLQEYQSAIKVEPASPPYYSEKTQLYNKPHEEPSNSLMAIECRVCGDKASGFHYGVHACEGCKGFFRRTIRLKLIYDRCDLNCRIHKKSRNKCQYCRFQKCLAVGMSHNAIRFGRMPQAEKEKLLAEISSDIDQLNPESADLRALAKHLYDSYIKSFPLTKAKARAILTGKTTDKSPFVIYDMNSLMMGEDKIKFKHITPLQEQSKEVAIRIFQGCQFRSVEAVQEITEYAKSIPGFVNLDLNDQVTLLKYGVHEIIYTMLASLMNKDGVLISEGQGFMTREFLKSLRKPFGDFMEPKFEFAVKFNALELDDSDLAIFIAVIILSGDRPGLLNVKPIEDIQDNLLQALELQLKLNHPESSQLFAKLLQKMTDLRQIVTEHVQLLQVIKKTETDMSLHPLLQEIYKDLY
Experiment: Agonist activity at human PPARgamma
Conditions: not given

Point of comparison: `CCCCCOC(=O)Cc1c(C(C)C)nc(CCCC)n(Cc2ccc(-c3ccccc3-c3noc(=O)[nH]3)cc2)c1=O`, EC50 1090 nM. Against it:
- CCCCc1nc(C)c(CC(=O)OC(C)C)c(=O)n1Cc1ccc(-c2ccccc2-c2noc(=O)[nH]2)cc1 — 1.5-fold higher, 1660 nM
- CCCCc1nc(C(C)C)c(CC(=O)OCCC)c(=O)n1Cc1ccc(-c2ccccc2-c2noc(=O)[nH]2)cc1 — within 1.5-fold, 1500 nM
- CCCCc1nc(C(C)C)c(CC(=O)O)c(=O)n1Cc1ccc(-c2ccccc2-c2noc(=O)[nH]2)cc1 — 9.4-fold higher, 10300 nM
- CCCCc1nc(C(C)C)c(CC(=O)OC2CCCCC2)c(=O)n1Cc1ccc(-c2ccccc2-c2noc(=O)[nH]2)cc1 — within 1.5-fold, 730 nM

Test system: not listed separately
Experiment: Stability in rat liver microsomes assessed as parent compound remaining after 30 mins
Format: ADME, Microsome
Conditions: read-out: Stability

In the case of `CCCCc1nc(C(C)C)c(C(C)C(=O)OCC)c(=O)n1Cc1ccc(-c2ccccc2-c2noc(=O)[nH]2)cc1` (stereo unspecified), the remaining at 0.5 h is reported as 19.2%.

Molecular target: T2, Peroxisome proliferator-activated receptor gamma (Homo sapiens) (UniProt P37231)
T2 sequence (whole entry): T1 sequence (P37231 whole entry)
Experiment: Agonist activity at human PPARgamma at 1 uM relative to telmisartan
Conditions: not given

Point of comparison: `CCCCc1nc(C(C)C)c(C(C)C(=O)OCC)c(=O)n1Cc1ccc(-c2ccccc2-c2noc(=O)[nH]2)cc1` (stereo unspecified), fold change (FC) 1.3. Against it:
- CCCCc1nc(C(C)(C)C)c(CC(=O)OCC)c(=O)n1Cc1ccc(-c2ccccc2-c2noc(=O)[nH]2)cc1 — lower, < 1

Test system: not listed separately
Experiment: Drug metabolism in human liver S9 fraction assessed as acylglucuronide formation
Format: ADME, subcellular
Conditions: not given

For `CCCCc1nc(C(C)C)c(CC(=O)O)c(=O)n1Cc1ccc(-c2ccccc2-c2noc(=O)[nH]2)cc1`, the Drug metabolism was “Metabolite_Detected”.

Test system: not listed separately
Experiment: Drug metabolism in mouse liver S9 fraction assessed as acylglucuronide formation
Format: ADME, subcellular
Conditions: not given

With `CCCCc1nc(C(C)C)c(CC(=O)O)c(=O)n1Cc1ccc(-c2ccccc2-c2noc(=O)[nH]2)cc1` the Drug metabolism was “Metabolite_Detected”.

Test system: not listed separately
Experiment: Stability in dog liver microsomes assessed as parent compound remaining after 30 mins
Format: ADME, Canis lupus familiaris, Microsome
Conditions: read-out: Stability

`CCCCc1nc(C(C)C)c(C(C)C(=O)OCC)c(=O)n1Cc1ccc(-c2ccccc2-c2noc(=O)[nH]2)cc1` (stereo unspecified) gave a remaining at 0.5 h of 43.8%.

Molecular target: T2, Peroxisome proliferator-activated receptor gamma (Homo sapiens)
Experiment: Agonist activity at human PPARgamma at 1 uM relative to pioglitazone
Conditions: not given

Point of comparison: `CCCCc1nc(C)c(CC(=O)OC(C)C)c(=O)n1Cc1ccc(-c2ccccc2-c2noc(=O)[nH]2)cc1`, max activation 114%. Against it:
- CCCCCOC(=O)Cc1c(C(C)C)nc(CCCC)n(Cc2ccc(-c3ccccc3-c3noc(=O)[nH]3)cc2)c1=O — lower, 54%
- CCCCc1nc(C(C)C)c(CC(=O)OCCC)c(=O)n1Cc1ccc(-c2ccccc2-c2noc(=O)[nH]2)cc1 — higher, 133%
- CCCCc1nc(C(C)C)c(CC(=O)O)c(=O)n1Cc1ccc(-c2ccccc2-c2noc(=O)[nH]2)cc1 — lower, 2%
- CCCCc1nc(C(C)C)c(CC(=O)OC2CCCCC2)c(=O)n1Cc1ccc(-c2ccccc2-c2noc(=O)[nH]2)cc1 — lower, 88%
